# Reference: patent US20200131132A1, “FARNESOID X RECEPTOR AGONISTS AND USES THEREOF” (Metacrine, Inc., priority 2017, published 2020)
# Molecular target: T1, hFXR (Homo sapiens, UniProt Q96RI1)
# T1 construct: expressed in transfected cells; host or cells: CV-1 cells
# T1 sequence (Q96RI1 1-486): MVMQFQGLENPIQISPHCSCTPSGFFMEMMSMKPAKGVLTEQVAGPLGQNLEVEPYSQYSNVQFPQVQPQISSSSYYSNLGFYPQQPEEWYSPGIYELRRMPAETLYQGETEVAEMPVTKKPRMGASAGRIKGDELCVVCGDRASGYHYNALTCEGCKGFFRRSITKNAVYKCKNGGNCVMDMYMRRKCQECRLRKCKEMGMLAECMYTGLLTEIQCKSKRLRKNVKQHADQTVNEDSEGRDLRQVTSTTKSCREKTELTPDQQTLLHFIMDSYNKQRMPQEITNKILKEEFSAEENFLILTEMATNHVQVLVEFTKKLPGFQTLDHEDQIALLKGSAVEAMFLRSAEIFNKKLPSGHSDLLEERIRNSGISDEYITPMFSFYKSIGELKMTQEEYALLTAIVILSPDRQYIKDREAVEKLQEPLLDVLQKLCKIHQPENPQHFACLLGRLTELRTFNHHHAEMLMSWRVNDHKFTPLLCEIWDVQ
# T1 sequence (P19793 1-462 partner): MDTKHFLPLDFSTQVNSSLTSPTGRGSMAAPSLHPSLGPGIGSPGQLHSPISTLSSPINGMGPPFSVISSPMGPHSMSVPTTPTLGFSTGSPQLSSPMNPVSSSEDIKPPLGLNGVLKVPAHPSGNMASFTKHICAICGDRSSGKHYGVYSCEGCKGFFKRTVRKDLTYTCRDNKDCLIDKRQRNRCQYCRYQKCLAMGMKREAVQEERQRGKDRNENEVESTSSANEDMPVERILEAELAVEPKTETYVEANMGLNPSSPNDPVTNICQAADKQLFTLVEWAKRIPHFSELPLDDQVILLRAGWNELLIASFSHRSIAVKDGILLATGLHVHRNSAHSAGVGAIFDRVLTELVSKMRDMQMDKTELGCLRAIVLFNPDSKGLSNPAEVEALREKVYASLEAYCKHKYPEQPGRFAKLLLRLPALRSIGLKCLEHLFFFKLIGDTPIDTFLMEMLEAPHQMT
# Assay: In Vitro FXR Assay (TK)
# Format: cell-based
# Details: CV-1 cells transfected with hFXR, hRXR, TK-ECRE-luc and pCMX-YFP; compounds incubated 18 hrs; luminescence
# Description: CV-1 cells were seeded at a density of 2,000,000 cells in a T175 flask with DMEM+10% charcoal double-stripped FBS and incubated at 37° C. in 5% CO2 for 18 h (O/N).
# After 18 h of incubation, the medium in the T175 flask was changed with fresh DMEM+10% charcoal super-stripped serum. In a polypropylene tube, 2500 μL OptiMEM (Life Technologies, Cat #31985-062) was combined with expression plasmids for hFXR, hRXR, TK-ECRE-luc and pCMX-YFP. The tube was then briefly vortexed and incubated at room temperature for 5 minutes. Transfection reagent (X-tremeGENE HP from Roche, Cat #06 366 236 001) was added to the OptiMEM/plasmid mixture vortexed and incubated at room temperature for 20 minutes. Following incubation, the transfection reagent/DNA mixture complex was added to cells in the T175 flask and the cells were incubated at 37° C. in 5% CO2 for 18 h (O/N).
# Compounds were serially diluted in DMSO and added to transfected CV-1 cells. The cells were then incubated for 18 hrs. The next day cells were lysed and examined for luminescence.
row,EC50 [nM],SMILES
1,≤ 1000,"COc1ccc(-c2ccc(CN(C(=O)CC(C)(C)C)c3nccc4cc(CCO)ccc34)cc2)cc1C [Compound 25, N-(6-(2-Hydroxyethyl)isoquinolin-1-yl)-N-((4′-methoxy-3′-methyl-[1,1′-biphenyl]-4-yl)methyl)-3,3-dimethylbutanamide]"
2,≤ 1000,"COc1ccc(-c2ccc(CN(C(=O)CC(C)(C)C)c3nccc4cc(Br)ccc34)cc2)cc1C [Compound 4, N-(6-Bromoisoquinolin-1-yl)-N-((4′-methoxy-3′-methyl-[1,1′-biphenyl]-4-yl)methyl)-3,3-dimethylbutanamide]"
3,≤ 1000,"COc1ccc(-c2ccc(CN(C(=O)CC(C)(C)C)c3nccc4cc(N5CCC(F)C5)ccc34)cc2)cc1C (stereo not drawn) [Compound 6.12, N-(6-(3-Fluoropyrrolidin-1-yl)isoquinolin-1-yl)-N-((4′-methoxy-3′-methyl-[1,1′-biphenyl]-4-yl)methyl)-3,3-dimethylbutanamide]"
4,≤ 1000,"COc1ccc(-c2ccc(CN(C(=O)CC(C)(C)C)c3nccc4cc(N(C)CCO)ccc34)cc2)cc1C [Compound 6.01, N-(6-((2-Hydroxyethyl)(methyl)amino)iso-quinolin-1-yl)-N-((4′-methoxy-3′-methyl-[1,1′-biphenyl]-4-yl)methyl)-3,3-dimethylbutanamide]"
5,> 10000,"COc1ccc(-c2ccc(CN(C(=O)CC(C)(C)C)c3cccc4ccncc34)cc2)cc1C [Compound 5.02, N-(Isoquinolin-8-yl)-N-((4′-methoxy-3′-methyl-[1,1′-biphenyl]-4-yl)methyl)-3,3-dimethylbutanamide]"
6,≤ 1000,"COc1ccc(-c2ccc(CN(C(=O)CC(C)(C)C)c3nccc4cc(N5CCC(CCO)C5)ccc34)cc2)cc1C (stereo not drawn) [Compound 6.14, N-(6-(3-(2-Hydroxyethyl)pyrrolidin-1-yl)isoquinolin-1-yl)-N-((4′-methoxy-3′-methyl-[1,1′-biphenyl]-4-yl)methyl)-3,3-dimethylbutanamide]"
7,≤ 1000,"COc1ccc(-c2ccc(CN(C(=O)CC(C)(C)C)c3nccc4cc(N5CCC(C#N)C5)ccc34)cc2)cc1C (stereo not drawn) [Compound 6.13, N-(6-(3-Cyanopyrrolidin-1-yl)isoquinolin-1-yl)-N-((4′-methoxy-3′-methyl-[1,1′-biphenyl]-4-yl)methyl)-3,3-dimethylbutanamide]"
8,≤ 1000,"COc1ccc(-c2ccc(CN(C(=O)CC(C)(C)C)c3nccc4ccc(Br)cc34)cc2)cc1C [Compound 4.06, N-(7-Bromoisoquinolin-1-yl)-N-((4′-methoxy-3′-methyl-[1,1′-biphenyl]-4-yl)methyl)-3,3-dimethylbutanamide]"
9,≤ 1000,"COc1ccc(-c2ccc(CN(C(=O)CC(C)(C)C)c3nccc4sccc34)cc2)cc1C [Compound 4.05, N-((4′-Methoxy-3′-methyl-[1,1′-biphenyl]-4-yl)methyl)-3,3-dimethyl-N-(thieno[3,2-c]pyridine-4-yl)butanamide]"
10,1000 to 10000,"COc1ccc(-c2ccc(CN(C(=O)CC(C)(C)C)c3nccc4cc(OCCN(C)C)ccc34)cc2)cc1C [Compound 8.04, N-(6-(2-(Dimethylamino)ethoxy)isoquinolin-1-yl)-N-((4′-methoxy-3′-methyl-[1,1′-biphenyl]-4-yl)methyl)-3,3-dimethylbutanamide]"
11,≤ 1000,"COc1ccc(-c2ccc(CN(C(=O)CC(C)(C)C)c3nccc4cc(C(=O)N(C)C)ccc34)cc2)cc1C [Compound 19, 1-(N-((4′-Methoxy-3′-methyl-[1,1′-biphenyl]-4-yl)methyl)-3,3-dimethylbutanamido)-N,N-dimethylisoquinoline-6-carboxamide]"
12,> 10000,"COc1ccc(-c2ccc(CN(C(=O)CC(C)(C)C)c3nccc4cc(OCC(=O)O)ccc34)cc2)cc1C [Compound 29, 2-((1-(N-((4′-Methoxy-3′-methyl-[1,1′-biphenyl]-4-yl)methyl)-3,3-dimethylbutanamido)isoquinolin-6-yl)oxy)acetic acid]"
13,≤ 1000,"COC(=O)Nc1ccc2c(N(Cc3ccc(-c4ccc(OC)c(C)c4)cc3)C(=O)CC(C)(C)C)nccc2c1 [Compound 6.21, Methyl (l-(N-((4′-methoxy-3′-methyl-[1,1′-biphenyl]-4-yl)methyl)-3,3-dimethylbutanamido)isoquinolin-6-yl)carbamate]"
14,≤ 1000,"COc1ccc(-c2ccc(CN(C(=O)CC(C)(C)C)c3nccc4cc(N5CC(CO)C5)ccc34)cc2)cc1C [Compound 6.15, N-(6-(3-(Hydroxymethyl)azetidin-1-yl)isoquinolin-1-yl)-N-((4′-methoxy-3′-methyl-[1,1′-biphenyl]-4-yl)methyl)-3,3-dimethylbutanamide]"
15,1000 to 10000,"COc1ccc(-c2ccc(CN(C(=O)CC(C)(C)C)c3cncc4ccccc34)cc2)cc1C [Compound 5, N-(Isoquinolin-4-yl)-N-((4′-methoxy-3′-methyl-[1,1′-biphenyl]-4-yl)methyl)-3,3-dimethylbutanamide]"
16,1000 to 10000,"COc1ccc(-c2ccc(CN(C(=O)CC(C)(C)C)c3nccc4cc(N5CCNCC5)ccc34)cc2)cc1C [Compound 6.09, N-((4′-Methoxy-3′-methyl-[1,1′-biphenyl]-4-yl)methyl)-3,3-dimethyl-N-(6-(piperazin-1-yl)isoquinolin-1-yl)butanamide]"
17,≤ 1000,"COc1ccc(-c2ccc(CN(C(=O)CC(C)(C)C)c3nccc4cc(C(C)(C)O)ccc34)cc2)cc1C [Compound 17, N-(6-(2-Hydroxypropan-2-yl)isoquinolin-1-yl)-N-((4′-methoxy-3′-methyl-[1,1′-biphenyl]-4-yl)methyl)-3,3-dimethylbutanamide]"
18,≤ 1000,"COc1ccc(-c2ccc(CN(C(=O)CC(C)(C)C)c3nccc4cc(-c5ncco5)ccc34)cc2)cc1C [Compound 14, N-((4′-Methoxy-3′-methyl-[1,1′-biphenyl]-4-yl)methyl)-3,3-dimethyl-N-(6-(oxazol-2-yl)isoquinolin-1-yl)butanamide]"
19,≤ 1000,"COc1ccc(-c2ccc(CN(C(=O)CC(C)(C)C)c3nccc4cc(N5CCC(O)C5)ccc34)cc2)cc1C (stereo not drawn) [Compound 6, N-(6-(3-Hydroxypyrrolidin-1-yl)isoquinolin-1-yl)-N-((4′-methoxy-3′-methyl-[1,1′-biphenyl]-4-yl)methyl)-3,3-dimethylbutanamide]"
20,≤ 1000,"COc1ccc2ccnc(N(Cc3ccc(-c4ccc(OC)c(C)c4)cc3)C(=O)CC(C)(C)C)c2c1 [Compound 11.03, N-((4′-Methoxy-3′-methyl-[1,1′-biphenyl]-4-yl)methyl)-N-(7-methoxyisoquinolin-1-yl)-3,3-dimethylbutanamide]"
21,> 10000,"COc1ccc(-c2ccc(CN(C(=O)CC(C)(C)C)c3nccc4cc(OC5CCN(C)CC5)ccc34)cc2)cc1C [Compound 8.06, N-((4′-Methoxy-3′-methyl-[1,1′-biphenyl]-4-yl)methyl)-3,3-dimethyl-N-(6-((1-methylpiperidin-4-yl)oxy)isoquinolin-1-yl)butanamide]"
22,≤ 1000,"COc1ccc(-c2ccc(CN(C(=O)CC(C)(C)C)c3nccc4cc(-c5ccccn5)ccc34)cc2)cc1C [Compound 16, N-((4′-Methoxy-3′-methyl-[1,1′-biphenyl]-4-yl)methyl)-3,3-dimethyl-N-(6-(pyridin-2-yl)isoquinolin-1-yl)butanamide]"
23,≤ 1000,"COc1ccc(-c2ccc(CN(C(=O)CC(C)(C)C)c3nccc4cc(-c5nccs5)ccc34)cc2)cc1C [Compound 14.01, N-((4′-Methoxy-3′-methyl-[1,1′-biphenyl]-4-yl)methyl)-3,3-dimethyl-N-(6-(thiazol-2-yl)isoquinolin-1-yl)butanamide]"
24,≤ 1000,"COc1ccc(-c2ccc(CN(C(=O)CC(C)(C)C)c3nccc4cc(OC5CCC(O)C5)ccc34)cc2)cc1C (stereo not drawn) [Compound 10.02, N-(6-((3-Hydroxycyclopentyl)oxy)iso-quinolin-1-yl)-N-((4′-methoxy-3′-methyl-[1,1′-biphenyl]-4-yl)methyl)-3,3-dimethylbutanamide]"
